# Laboratory results taken from patent publication US9822373B2, “Mutant cells for protein secretion and lignocellulose degradation” (The Regents of the University of California, priority 2011, dated 2017).
# Tests used:
# [1] = tested on: cellobiohydrolase I (cbh-1, NCU07340); assay: Quantitative RT-PCR of cbh-1 expression after 4 h induction with a carbon source; format: cell-based, Neurospora crassa
# Description: Strains were inoculated at an OD595 equal to 0.05 in 50 ml Vogel's salts with 2% (wt/vol) sucrose in a 250 ml Erlenmeyer flask and grown under constant light at 200 rpm for 16 hours. The biomass was then spun at 4000 rpm for 10 minutes and washed in Vogel's twice to remove any excess sucrose. The biomass was then added to a new 50 ml culture with 2% (wt/vol) sucrose, cellobiose (Sigma) or Avicel® PH 101 (Avicel®). Cultures were induced for 4 hours under constant light at 200 rpm. The culture biomass was then harvested by filtration over a Whatman glass microfiber filter (GF/F) on a Buchner funnel and washed with 50 ml Vogel's, biomass was flash frozen in liquid Nitrogen and stored at −80° C.
# Total RNA from frozen samples was isolated using Zirconia/Silica beads (0.2 g, 0.5 mm diameter; Biospec) and a Mini-Beadbeater-96 (Biospec) with 1 mL TRIzol reagent (Invitrogen) according to manufacturer's instructions. Total RNA was further purified by digestion with TURBO DNA-free (Ambion) and an RNeasy kit (Qiagen). RNA integrity was checked by Nanodrop and agarose gel electrophoresis.
# Quantitative RT-PCR was performed using the EXPRESS One-Step SYBR GreenER Kit (Invitrogen) and the StepOnePlus Real-Time PCR System (Applied Biosystems). Reactions were performed in triplicate with a total reaction volume of 10 ul including 300 nM each forward and reverse primers and 75 ng template RNA. Data Analysis was performed by the StepOne Software (Applied Biosystems) using Relative Quantitation/Comparative CT (ΔΔCT). Data was normalized to the endogenous control actin with expression on sucrose as the reference sample. Error bars indicate a 95% confidence interval. The RT-PCR primers were used as described in (Tian et al., 2009).
# Conidia from strains were inoculated at an OD595 equal to 0.05 in 50 ml Vogel's salts (45) with 2% w/v sucrose in a 250 ml Erlenmeyer flask and grown under constant light at 200 rpm for 16 hours. Biomass was then spun at 4200 rpm for 10 minutes and washed in Vogel's salts twice to remove any excess sucrose. Biomass was then added to a new flask containing 50 ml Vogel's salts supplemented with 1% w/v sucrose, 0.2% w/v cellobiose (Sigma) or 1% w/v Avicel® PH 101 (Sigma). Cultures were induced for 4 hrs under constant light at 200 rpm. The culture biomass was then harvested by filtration over a Whatman glass microfiber filter (GF/F) on a Buchner funnel and washed with 50 ml Vogel's salts. […] Three independent biological duplicates (flasks) were evaluated for each time point. […]
# Quantitative RT-PCR was performed using the EXPRESS One-Step SYBR GreenER Kit (Invitrogen) and the StepOnePlus Real-Time PCR System (Applied Biosystems). […] Data Analysis was performed by the StepOne Software (Applied Biosystems) using the Relative Quantitation/Comparative CT (ΔΔCT) setting. […]
# [2] = tested on: Exoglucanase (Cellobiohydrolase I); assay: MuLac (4-Methylumbelliferyl β-D-cellobioside) exoglucanase activity of culture supernatant; format: cell-based, Neurospora crassa; details: for MuLac activity: triple β-glucosidase deletion
# Description: Strains were inoculated at an OD595 equal to 0.05 in 100 ml Vogel's salts with 1% (wt/vol) sucrose in a 250 ml Erlenmeyer flask and grown under constant light at 200 rpm for 24 hours. Cultures were then induced with 2% sucrose, 2% cellobiose, 1% sucrose/1% cellobiose, or 1% sucrose/1% Avicel®. Cultures continued to grow under constant light at 200 rpm for 5 days with supernatant collected at 1, 2, 3, 4 and 5 day. The collected supernatant was filtered through a 0.2 μm PES filter to remove biomass before being stored at −20° C. until all samples were collected. To visualize the secreted proteins, 15 μl of unconcentrated supernatant was run on a Criterion 10% Tris-HCL polyacrylamide gel and stained with Thermo Scientific GelCode Blue Stain Reagent.
# Exoglucanase (Cellobiohydrolase I) activity was measured using a 4-Methylumbelliferyl β-D-cellobioside (MuLac) assay. This assay mainly measures the activity of CBH-1 and activity is expressed as the change in fluorescence over time resulting in the slope of a best-fit line as an indication of enzyme activity. Prior to performing this assay, any excess sugars in the culture supernatant were removed by passing the supernatant over a 5,000 Dalton concentrator (sartorius stedim Vivaspin 500). Retained proteins were washed twice with 50 mM sodium acetate pH 5 and diluted to 2 μg/μl to assure that the assay remained in the linear range. […] The assay was performed in a Beckman Coulter Paradigm plate reader set at 40° C. with excitation/emission wavelengths of 360/465 nm with readings every 30 seconds for 10 minutes. The slope of the best-fit line represents the MuLac activity for an individual culture supernatant. The MuLac activity is normalized to the initial dilution required to obtain a 2 μg/μl concentration in order to represent the undiluted activity. The activity of recombinant cellobiohydrolase-1 was used as a standard and data is presented as a percentage of the wild type activity on Avicel® after 4 days.
smiles,measurement,setting,value
O=C[C@H](O)[C@@H](O)[C@H](O[C@@H]1O[C@H](CO)[C@@H](O)[C@H](O)[C@H]1O)[C@H](O)CO [cellobiose],induction for cbh-1 compared to relative expression on sucrose,"[1]; WT strain, 2% carbon source, 4 h induction",20 fold
same,cbh-1 increase in relative expression over expression on sucrose,"[1]; triple β-glucosidase mutant, 2% carbon source, 4 h induction","6,500 fold"
same,increase in transcription of cbh-1 above expression on sucrose in the same strain,"[1]; Δcre-1 strain, 4 h induction (Example 1)",600 fold
same,induction of cbh-1,"[1]; Δcre-1 strain, shifted from sucrose to 0.2% cellobiose for 4 hrs","3,000 fold"
same,MuLac activity,[2]; 4 days,4.84 μg CBHI equivalent
same,MuLac activity,[2]; two days,1.4 μg recombinant CBHI
same,MuLac activity (CBHI equivalent produced),"[2]; triple β-glucosidase/Δcre-1 deletion strain, four days",more than 11 μg CBHI equivalent
same,activity towards MuLac,"[2]; Δcre-1, time not stated",0.8 µg
